Data from PubChem BioAssay (NCI).
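Method: 48-hour compound exposure of cells in 96-well plates, five concentrations, linear interpolation of endpoints. TGI: concentration producing complete growth inhibition.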

Tests used:
Test in all cases: inhibition of tumour cell growth, NCI panel, 48 h
[1] = system: MDA-N
[2] = system: HCT-15 colon
[3] = system: NCI-H23 lung
[4] = system: HL-60(TB) leukemia
[5] = system: HT29 colon
[6] = system: OVCAR-8 ovarian
[7] = system: BT-549 breast
[8] = system: MDA-MB-435
[9] = system: MALME-3M melanoma
[10] = system: NCI-H522 lung
[11] = system: KM12 colon
[12] = system: PC-3 prostate
[13] = system: TK-10 renal
[14] = system: ACHN renal
[15] = system: HOP-92 NSCLC
[16] = system: SW-620 colon
[17] = system: K-562 leukemia
[18] = system: SN12C renal
[19] = system: UACC-257 melanoma
[20] = system: SK-OV-3 ovarian
[21] = system: SF-295 CNS
[22] = system: UO-31 renal
[23] = system: UACC-62 melanoma
[24] = system: SK-MEL-28 melanoma
[25] = system: SK-MEL-5 melanoma
[26] = system: NCI/ADR-RES ovarian
[27] = system: RXF 393 renal
[28] = system: SK-MEL-2 melanoma
[29] = system: CAKI-1 renal
[30] = system: U251 CNS
[31] = system: OVCAR-3 ovarian
[32] = system: SF-539 CNS
[33] = system: HS 578T breast
[34] = system: MCF7 breast
[35] = system: T-47D breast
[36] = system: CCRF-CEM leukemia
[37] = system: RPMI-8226 leukemia
[38] = system: OVCAR-4 ovarian
[39] = system: MDA-MB-231 breast
[40] = system: COLO 205 colon
[41] = system: DU-145 prostate
[42] = system: MOLT-4 leukemia
[43] = system: SNB-75 CNS
[44] = system: IGROV1 ovarian
[45] = system: NCI-H460 lung
[46] = system: NCI-H226 lung
[47] = system: SF-268 CNS
[48] = system: LOX IMVI melanoma
[49] = system: M14 melanoma
[50] = system: EKVX NSCLC
[51] = system: HOP-62 NSCLC
[52] = system: HCT-116 colon
[53] = system: A549 NSCLC
[54] = system: OVCAR-5 ovarian
[55] = system: SNB-19 CNS
[56] = system: 786-0 renal
[57] = system: HCC-2998 colon
[58] = system: A498 renal

O=C1/C(=C/c2ccc(Cl)cc2)N=C(c2ccccc2)N1/N=C/c1ccccc1O
TGI [1]: > 100 µM
TGI [2]: > 100 µM
TGI [3]: > 100 µM
TGI [4]: > 100 µM
TGI [5]: > 100 µM
TGI [6]: 34.6 µM
TGI [7]: 39.6 µM
TGI [8]: > 100 µM
TGI [9]: 18.7 µM
TGI [10]: 35.6 µM
TGI [11]: 33.3 µM
TGI [12]: 28 µM
TGI [13]: 12.6 µM
TGI [14]: 21.2 µM
TGI [15]: 32.9 µM
TGI [16]: > 100 µM
TGI [17]: 31 µM
TGI [18]: > 100 µM
TGI [19]: > 100 µM
TGI [20]: 22.4 µM
TGI [21]: 29.7 µM
TGI [22]: 43.4 µM
TGI [23]: 30.3 µM
TGI [24]: 62.9 µM
TGI [25]: > 100 µM
TGI [26]: 97.6 µM
TGI [27]: 29.5 µM
TGI [28]: 46.3 µM
TGI [29]: 22.3 µM
TGI [30]: 18.6 µM
TGI [31]: 36.3 µM
TGI [32]: 26.6 µM
TGI [33]: 92.8 µM
TGI [34]: > 100 µM
TGI [35]: 30.7 µM
TGI [36]: 7.73 µM
TGI [37]: 24.8 µM
TGI [38]: 19.9 µM
TGI [39]: 63.3 µM
TGI [40]: > 100 µM
TGI [41]: > 100 µM
TGI [42]: 38.9 µM
TGI [43]: 31 µM
TGI [44]: 26.4 µM
TGI [45]: 79.2 µM
TGI [46]: 42.1 µM
TGI [47]: 47.1 µM
TGI [48]: 31.4 µM
TGI [49]: 19.1 µM
TGI [50]: 21.3 µM
TGI [51]: 5.21 µM
TGI [52]: 15.2 µM
TGI [53]: 81.6 µM
TGI [54]: 34.8 µM
TGI [55]: > 100 µM

O=[N+]([O-])/C=C/c1cc2ccc3ccccc3c2[nH]1
TGI [1]: 4.79 µM
TGI [2]: > 23.7 µM
TGI [3]: 5.07 µM
TGI [4]: 5.29 µM
TGI [5]: 5.86 µM
TGI [6]: > 21 µM
TGI [7]: 4.44 µM
TGI [8]: 3.73 µM
TGI [9]: 3.31 µM
TGI [10]: 2.4 µM
TGI [11]: 3.99 µM
TGI [12]: 3 µM
TGI [13]: 3.08 µM
TGI [14]: 2.68 µM
TGI [15]: 3.64 µM
TGI [16]: 4.87 µM
TGI [17]: 18.2 µM
TGI [18]: 3.81 µM
TGI [19]: 6.45 µM
TGI [20]: 17.2 µM
TGI [21]: 5.86 µM
TGI [56]: 3.07 µM
TGI [22]: 3.05 µM
TGI [23]: 3.51 µM
TGI [24]: 4.79 µM
TGI [25]: 3.26 µM
TGI [57]: 3.5 µM
TGI [26]: 6.87 µM
TGI [27]: 2.96 µM
TGI [28]: 2.39 µM
TGI [29]: 6.15 µM
TGI [30]: 2.95 µM
TGI [31]: 3.11 µM
TGI [32]: 4.99 µM
TGI [33]: 22.2 µM
TGI [34]: 4.29 µM
TGI [35]: 3.89 µM
TGI [36]: 2.8 µM
TGI [37]: 0.708 µM
TGI [38]: 4.95 µM
TGI [39]: 3.2 µM
TGI [40]: 4.29 µM
TGI [41]: 3.9 µM
TGI [42]: > 100 µM
TGI [43]: 3.87 µM
TGI [44]: 1.89 µM
TGI [45]: 5.61 µM
TGI [46]: 2.78 µM
TGI [47]: 4.02 µM
TGI [48]: 2.42 µM
TGI [49]: 3.33 µM
TGI [50]: 5.33 µM
TGI [51]: 4.39 µM
TGI [58]: 3.16 µM
TGI [52]: 3.43 µM
TGI [53]: 4.88 µM
TGI [54]: 4.55 µM
TGI [55]: 7.79 µM

Cc1[nH]c2nc3c(ncn3COCCO)c(=O)n2c1C(c1ccccc1)(c1ccccc1)c1ccccc1
TGI [1]: 29.2 µM
TGI [2]: > 100 µM
TGI [3]: 23.1 µM
TGI [4]: 44.4 µM
TGI [5]: 24.2 µM
TGI [6]: 32.4 µM
TGI [7]: 2.22 µM
TGI [8]: 24.3 µM
TGI [9]: 33.6 µM
TGI [10]: 28.2 µM
TGI [11]: 28.5 µM
TGI [12]: 26 µM
TGI [13]: 30.8 µM
TGI [14]: 35.5 µM
TGI [15]: 31.8 µM
TGI [16]: > 56.4 µM
TGI [17]: 27.3 µM
TGI [18]: 33 µM
TGI [19]: 27.4 µM
TGI [20]: 32.8 µM
TGI [21]: 34.2 µM
TGI [56]: 32.2 µM
TGI [22]: > 76.1 µM
TGI [23]: 24 µM
TGI [24]: 43.5 µM
TGI [25]: 29.4 µM
TGI [57]: 26.4 µM
TGI [26]: > 100 µM
TGI [27]: 26.2 µM
TGI [28]: 29.8 µM
TGI [29]: > 100 µM
TGI [30]: 28 µM
TGI [31]: 15.4 µM
TGI [32]: 19.2 µM
TGI [33]: > 91.2 µM
TGI [34]: 23.1 µM
TGI [35]: 29.7 µM
TGI [36]: > 52.9 µM
TGI [37]: 45.5 µM
TGI [38]: 30.4 µM
TGI [39]: 28.3 µM
TGI [40]: 31 µM
TGI [41]: 26.2 µM
TGI [42]: 24.3 µM
TGI [43]: 26.7 µM
TGI [44]: 28.4 µM
TGI [45]: 30.9 µM
TGI [47]: 33.1 µM
TGI [48]: 27.8 µM
TGI [49]: 33.3 µM
TGI [50]: 41.8 µM
TGI [51]: 44.3 µM
TGI [58]: 33.3 µM
TGI [52]: 29.3 µM
TGI [53]: 40.5 µM
TGI [54]: 32.7 µM
TGI [55]: 28.6 µM
